Measurements as given in US20070287752A1, “Ophthalmic Compositions Comprising A Branched, Glycerol Compound” (priority 2006, published 2007).

Tests used:
[1] = tested on: Fusarium solani (ATCC 36031); test: Preservative/disinfectant system efficacy testing (log reduction); format: cell-based
Method: (§1) The ophthalmic compositions are evaluated in accordance with specific procedures outlined by the US Food & Drug Administration and the International Organization for Standardization for the testing of microbiocidal efficacy.

[2] = tested on: Pseudomonas aeruginosa (ATCC 9027); test: as above; format: cell-based
Method: as §1

[3] = tested on: Serratia marcescens (ATCC 13880); test: as above; format: cell-based
Method: as §1

[4] = tested on: Staphylococcus aureus (ATCC 6538); test: as above; format: cell-based
Method: as §1

[5] = tested on: Pseudomonas aeruginosa, Staphylococcus aureus, Serratia marcescens, Candida albicans and Fusarium solani; settings: biocidal data from Examples 1, 2 and 3
Method: as §1

[6] = tested on: Gram-positive bacteria such as Micrococcus luteus, Corynebacterium aquaticum, Corynebacteriumflavescens, Corynebacterium callunae, and Corynebacterium nephredi; settings: cited from earlier work
[7] = 1 hr, Table 5A multi-purpose lens care solution, 10% organic soil, disinfectant concentrations as in label
[8] = 1 hr, phosphate buffered saline, 10% organic soil, concentrations as in label (Table 4)
[9] = 4 hr, Table 5A multi-purpose lens care solution, 10% organic soil, disinfectant concentrations as in label
[10] = 4 hr, phosphate buffered saline, 10% organic soil, concentrations as in label (Table 4)
[11] = EHOPD 0.0001 wt %, 1 hr, borate buffered saline, 10% organic soil
[12] = EHOPD 0.0001 wt %, 1 hr, phosphate buffered saline, 10% Organic Soil
[13] = EHOPD 0.0001 wt %, 4 hr, borate buffered saline, 10% organic soil
[14] = EHOPD 0.0001 wt %, 4 hr, phosphate buffered saline, 10% Organic Soil
[15] = EHOPD 0.001 wt %, 1 hr, borate buffered saline, 10% organic soil
[16] = EHOPD 0.001 wt %, 1 hr, phosphate buffered saline, 10% Organic Soil
[17] = EHOPD 0.001 wt %, 4 hr, borate buffered saline, 10% organic soil
[18] = EHOPD 0.001 wt %, 4 hr, phosphate buffered saline, 10% Organic Soil
[19] = EHOPD 0.01 wt %, 1 hr, Table 3A multi-purpose lens care formulation, 10% organic soil
[20] = EHOPD 0.01 wt %, 1 hr, borate buffered saline, 10% organic soil
[21] = EHOPD 0.01 wt %, 1 hr, phosphate buffered saline, 10% Organic Soil
[22] = EHOPD 0.01 wt %, 4 hr, Table 3A multi-purpose lens care formulation, 10% organic soil
[23] = EHOPD 0.01 wt %, 4 hr, borate buffered saline, 10% organic soil
[24] = EHOPD 0.01 wt %, 4 hr, phosphate buffered saline, 10% Organic Soil
[25] = EHOPD 0.1 wt %, 1 hr, Table 3A multi-purpose lens care formulation, 10% organic soil
[26] = EHOPD 0.1 wt %, 1 hr, borate buffered saline, 10% organic soil
[27] = EHOPD 0.1 wt %, 1 hr, phosphate buffered saline, 10% Organic Soil
[28] = EHOPD 0.1 wt %, 4 hr, Table 3A multi-purpose lens care formulation, 10% organic soil
[29] = EHOPD 0.1 wt %, 4 hr, borate buffered saline, 10% organic soil
[30] = EHOPD 0.1 wt %, 4 hr, phosphate buffered saline, 10% Organic Soil
[31] = EHOPD 0.15 wt %, 1 hr, Table 3A multi-purpose lens care formulation, 10% organic soil
[32] = EHOPD 0.15 wt %, 4 hr, Table 3A multi-purpose lens care formulation, 10% organic soil
[33] = EHOPD 0.25 wt %, 1 hr, Table 3A multi-purpose lens care formulation, 10% organic soil
[34] = EHOPD 0.25 wt %, 4 hr, Table 3A multi-purpose lens care formulation, 10% organic soil
[35] = EHOPD 0.50 wt %, 1 hr, Table 3A multi-purpose lens care formulation, 10% organic soil
[36] = EHOPD 0.5 wt %, 1 hr, borate buffered saline, 10% organic soil
[37] = EHOPD 0.5 wt %, 1 hr, phosphate buffered saline, 10% Organic Soil
[38] = EHOPD 0.50 wt %, 4 hr, Table 3A multi-purpose lens care formulation, 10% organic soil
[39] = EHOPD 0.5 wt %, 4 hr, borate buffered saline, 10% organic soil
[40] = EHOPD 0.5 wt %, 4 hr, phosphate buffered saline, 10% Organic Soil
[41] = EHOPD 0.75 wt %, 1 hr, Table 3A multi-purpose lens care formulation, 10% organic soil
[42] = EHOPD 0.75 wt %, 4 hr, Table 3A multi-purpose lens care formulation, 10% organic soil
[43] = EHOPD 1.0 wt %, 1 hr, Table 3A multi-purpose lens care formulation, 10% organic soil
[44] = EHOPD 1.0 wt %, 4 hr, Table 3A multi-purpose lens care formulation, 10% organic soil

Structure (SMILES): CCCCC(CC)COCC(O)CO (stereo not shown) [EHOPD, 3-[(2-ethylhexyl)oxy]-1,2-propanediol]
- log reduction F. solani [1, 7]: 3.1
- log reduction F. solani [1, 8]: 2.5
- log reduction F. solani [1, 9]: 5.0
- log reduction F. solani [1, 10]: 5.0
- log reduction F. solani [1, 11]: 1.3
- log reduction F. solani [1, 12]: 2.3
- log reduction F. solani [1, 13]: 2.1
- log reduction F. solani [1, 14]: 2.3
- log reduction F. solani [1, 15]: 1.9
- log reduction F. solani [1, 16]: 1.8
- log reduction F. solani [1, 17]: 1.9
- log reduction F. solani [1, 18]: 2.9
- log reduction F. solani [1, 19]: 0.3
- log reduction F. solani [1, 20]: 2.4
- log reduction F. solani [1, 21]: 3.6
- log reduction F. solani [1, 22]: 0.5
- log reduction F. solani [1, 23]: >5.8
- log reduction F. solani [1, 24]: >5.8
- log reduction F. solani [1, 25]: 0.3
- log reduction F. solani [1, 26]: >5.8
- log reduction F. solani [1, 27]: >5.8
- log reduction F. solani [1, 28]: 0.5
- log reduction F. solani [1, 29]: >5.8
- log reduction F. solani [1, 30]: >5.8
- log reduction F. solani [1, 31]: 0.5
- log reduction F. solani [1, 32]: >4.7
- log reduction F. solani [1, 33]: 0.8
- log reduction F. solani [1, 34]: >4.7
- log reduction F. solani [1, 35]: >4.7
- log reduction F. solani [1, 36]: >5.8
- log reduction F. solani [1, 37]: >5.8
- log reduction F. solani [1, 38]: >4.7
- log reduction F. solani [1, 39]: >5.8
- log reduction F. solani [1, 40]: >5.8
- log reduction F. solani [1, 41]: >4.7
- log reduction F. solani [1, 42]: >4.7
- log reduction F. solani [1, 43]: >4.7
- log reduction F. solani [1, 44]: >4.7
- log reduction P. aeruginosa [2, 7]: 1.4
- log reduction P. aeruginosa [2, 8]: 1.5
- log reduction P. aeruginosa [2, 9]: 1.4
- log reduction P. aeruginosa [2, 10]: 1.5
- log reduction P. aeruginosa [2, 11]: 1.5
- log reduction P. aeruginosa [2, 12]: 1.5
- log reduction P. aeruginosa [2, 13]: 1.5
- log reduction P. aeruginosa [2, 14]: 1.5
- log reduction P. aeruginosa [2, 15]: 1.5
- log reduction P. aeruginosa [2, 16]: 1.5
- log reduction P. aeruginosa [2, 17]: 1.5
- log reduction P. aeruginosa [2, 18]: 1.5
- log reduction P. aeruginosa [2, 19]: 1.9
- log reduction P. aeruginosa [2, 20]: 2.6
- log reduction P. aeruginosa [2, 21]: 1.5
- log reduction P. aeruginosa [2, 22]: 1.9
- log reduction P. aeruginosa [2, 23]: >5.0
- log reduction P. aeruginosa [2, 24]: 1.5
- log reduction P. aeruginosa [2, 25]: >5.4
- log reduction P. aeruginosa [2, 26]: >5.0
- log reduction P. aeruginosa [2, 27]: 1.5
- log reduction P. aeruginosa [2, 28]: >5.4
- log reduction P. aeruginosa [2, 29]: >5.0
- log reduction P. aeruginosa [2, 30]: 3.7
- log reduction P. aeruginosa [2, 31]: >5.4
- log reduction P. aeruginosa [2, 32]: >5.4
- log reduction P. aeruginosa [2, 33]: >5.4
- log reduction P. aeruginosa [2, 34]: >5.4
- log reduction P. aeruginosa [2, 35]: >5.4
- log reduction P. aeruginosa [2, 36]: >5.0
- log reduction P. aeruginosa [2, 37]: 1.5
- log reduction P. aeruginosa [2, 38]: >5.4
- log reduction P. aeruginosa [2, 39]: >5.0
- log reduction P. aeruginosa [2, 40]: 4.1
- log reduction P. aeruginosa [2, 41]: >5.4
- log reduction P. aeruginosa [2, 42]: >5.4
- log reduction P. aeruginosa [2, 43]: >5.4
- log reduction P. aeruginosa [2, 44]: >5.4
- log reduction S. marcescens [3, 7]: 2.3
- log reduction S. marcescens [3, 8]: 3.0
- log reduction S. marcescens [3, 9]: 3.3
- log reduction S. marcescens [3, 10]: 3.9
- log reduction S. marcescens [3, 11]: 1.7
- log reduction S. marcescens [3, 12]: 1.7
- log reduction S. marcescens [3, 13]: 1.7
- log reduction S. marcescens [3, 14]: 1.7
- log reduction S. marcescens [3, 15]: 1.7
- log reduction S. marcescens [3, 16]: 1.7
- log reduction S. marcescens [3, 17]: 1.7
- log reduction S. marcescens [3, 18]: 3.2
- log reduction S. marcescens [3, 19]: 2.0
- log reduction S. marcescens [3, 20]: 1.7
- log reduction S. marcescens [3, 21]: >5.2
- log reduction S. marcescens [3, 22]: 2.0
- log reduction S. marcescens [3, 23]: 1.7
- log reduction S. marcescens [3, 24]: >5.2
- log reduction S. marcescens [3, 25]: 2.0
- log reduction S. marcescens [3, 26]: 4.8
- log reduction S. marcescens [3, 27]: >5.2
- log reduction S. marcescens [3, 28]: 2.0
- log reduction S. marcescens [3, 29]: >5.2
- log reduction S. marcescens [3, 30]: >5.2
- log reduction S. marcescens [3, 31]: 2.0
- log reduction S. marcescens [3, 32]: 4.7
- log reduction S. marcescens [3, 33]: >5.4
- log reduction S. marcescens [3, 34]: >5.4
- log reduction S. marcescens [3, 35]: >5.4
- log reduction S. marcescens [3, 36]: 4.9
- log reduction S. marcescens [3, 37]: >5.2
- log reduction S. marcescens [3, 38]: >5.4
- log reduction S. marcescens [3, 39]: >5.2
- log reduction S. marcescens [3, 40]: >5.2
- log reduction S. marcescens [3, 41]: >5.4
- log reduction S. marcescens [3, 42]: >5.4
- log reduction S. marcescens [3, 43]: >5.4
- log reduction S. marcescens [3, 44]: >5.4
- log reduction S. aureus [4, 7]: 1.2
- log reduction S. aureus [4, 8]: 1.2
- log reduction S. aureus [4, 9]: 1.2
- log reduction S. aureus [4, 10]: 1.3
- log reduction S. aureus [4, 11]: 1.4
- log reduction S. aureus [4, 12]: 1.4
- log reduction S. aureus [4, 13]: 1.4
- log reduction S. aureus [4, 14]: 1.4
- log reduction S. aureus [4, 15]: 1.4
- log reduction S. aureus [4, 16]: 1.4
- log reduction S. aureus [4, 17]: 1.4
- log reduction S. aureus [4, 18]: 1.4
- log reduction S. aureus [4, 19]: 1.4
- log reduction S. aureus [4, 20]: 1.4
- log reduction S. aureus [4, 21]: 1.4
- log reduction S. aureus [4, 22]: 1.4
- log reduction S. aureus [4, 23]: 1.4
- log reduction S. aureus [4, 24]: 1.4
- log reduction S. aureus [4, 25]: 1.4
- log reduction S. aureus [4, 26]: 1.7
- log reduction S. aureus [4, 27]: 1.4
- log reduction S. aureus [4, 28]: 1.4
- log reduction S. aureus [4, 29]: 4.0
- log reduction S. aureus [4, 30]: 3.0
- log reduction S. aureus [4, 31]: 1.4
- log reduction S. aureus [4, 32]: 1.4
- log reduction S. aureus [4, 33]: 1.4
- log reduction S. aureus [4, 34]: 1.4
- log reduction S. aureus [4, 35]: 1.4
- log reduction S. aureus [4, 36]: 1.8
- log reduction S. aureus [4, 37]: 1.4
- log reduction S. aureus [4, 38]: 1.8
- log reduction S. aureus [4, 39]: 4.3
- log reduction S. aureus [4, 40]: 3.1
- log reduction S. aureus [4, 41]: 1.6
- log reduction S. aureus [4, 42]: 3.1
- log reduction S. aureus [4, 43]: 2.2
- log reduction S. aureus [4, 44]: 3.7
- biocidal activity (in words) [5]: significant activity against all of the microorganisms in the study
- antimicrobial activity (known, in words) [6]: exhibit antimicrobial activity against a variety of Gram-positive bacteria
